Tests used:
[1] = biological target: T1, Pyk2 (Homo sapiens, UniProt Q14289); experiment: Kinase panel screen; format: biochemical; conditions: Compound I and ATP 10 μM
T1 construct: purchased Upstate USA or Invitrogen (contract screening service)

[2] = biological target: T2, PKBa (Homo sapiens, UniProt P31749); experiment: Kinase panel screen; format: biochemical; conditions: read-out: Percent Control, PKBa
T2 construct: purchased Upstate USA or Invitrogen (contract screening service)

[3] = biological target: T3, Lyn (Mus musculus, UniProt P25911); experiment: Kinase panel screen; format: biochemical; conditions: Compound I and ATP 10 μM
T3 construct: purchased Upstate USA or Invitrogen (commercial screening service)

[4] = biological target: T4, ASK1 (Homo sapiens, UniProt Q99683); experiment: Kinase panel screen; format: biochemical; conditions: Compound I and ATP 10 μM
T4 construct: purchased Upstate USA or Invitrogen (contract screening service)

[5] = system: myocardial infarct; experiment: Porcine MI model; format: in vivo, pig
Method: PI3Kγ/δ inhibition limits infarct development in a porcine MI model. In a final series of studies, MIs were modeled in the pig, as this species better approximates human coronary anatomy and responses to myocardial I/R injury. With aggressive model parameters of a 90 min ischemic period, therapeutic dosing 30 min post-reperfusion and infarct measurement at 24 h, we typically observed ischemic zones representing 20-30% of the total LV and 20-30% infarction of this area in control animals. […] Measuring infarct area as percent of total LV ischemic area, infarct size was reduced by 35% (P=0.04). […] Finally, taking advantage of the larger porcine heart to make more detailed measurements, infarct areas within the LV free wall only (as opposed to the free plus attached wall measurements reported up to this point) were also determined, reasoning that free wall infarcts are of greatest relevance to overall myocardial function.
Porcine MI model: All animal studies followed current “NIH Guidelines for the Use of Laboratory Animals” and were performed according to IACUC-approved protocols. Farm swine (Landrace-Duroc cross, 32-41 kg) were acclimated for 1-3 weeks prior to study group randomization. On the day of surgery, animals (fasted overnight) were first administered aspirin, clopridogrel and nifedipine (650, 300 and 300 mg p.o., respectively), followed by atropine sulfate and telazol (0.05 and 7 mg/kg i.m., respectively). Anesthesia was then induced with ketamine and xylazine (25 mg/kg each i.m.) followed by intubation and maintenance on inhaled isoflurane; body temperature was maintained at 35-37° C. using heating pads. For each animal, the ventral neck was shaved and scrubbed with iodine, an arterial sheath inserted into the carotid artery, and under fluoroscopic guidance a guide catheter advanced to the coronary artery ostium. Angiographic images were used to guide angioplasty balloon placement (below the first major LAD bifurcation). After advancing through the guide catheter to the proper location, the balloon was inflated at a steady rate to a pressure sufficient to ensure complete occlusion of the LAD (verified by fluoroscopy), and occlusion maintained for 90 min. Blood pressure was monitored throughout the surgical procedure and adjusted as needed, and ECG monitored for arrhythmias as well as to confirm LAD occlusion. Lactated Ringer's solution was maintained as an i.v. drip (via the auricular vein), and heparin given to maintain an activated clotting time of ˜300 seconds. […] At the end of the ischemic period, the balloon was deflated and removed, and the ischemic area allowed to reperfuse (again verified by fluoroscopy). Catheters were removed, the arterial access ligated, the surgical area closed in layers and buprenorphine (0.01 mg/kg i.m.) administered.
On Study Day 2 (24 hr post-LAD occlusion), a surgical plane of anesthesia was established with sodium pentobarbital, and the LAD exposed and occluded using a suture snare at the same level as previously. Evans blue dye (100 ml of 0.1% saline solution) was injected i.v. and allowed to circulate for 5 min prior to explanting the heart. Hearts were cut into approximately 1 cm short axis slices and TTC stained and photographed as described for the rodent MI model. […]

[6] = biological target: T5, GSK3a (Homo sapiens, UniProt P49840); experiment: Kinase panel screen; format: biochemical; conditions: Compound I and ATP 10 μM
T5 construct: purchased Upstate USA or Invitrogen (commercial screening service)

[7] = biological target: T6, Arg (Homo sapiens, UniProt P42684); experiment: Kinase panel screen; format: biochemical; conditions: Compound I and ATP 10 μM
T6 construct: purchased Upstate USA or Invitrogen (contract screening service)

[8] = biological target: T7, Met (Homo sapiens, UniProt P08581); experiment: Kinase panel screen; format: biochemical; conditions: Compound I and ATP 10 μM
T7 construct: purchased Upstate USA or Invitrogen (contract screening service)

[9] = biological target: T8, SGK (Homo sapiens, UniProt O00141, S422D); experiment: Kinase panel screen; format: biochemical; conditions: Compound I and ATP 10 μM
T8 construct: purchased Upstate USA or Invitrogen (commercial screening service)

[10] = biological target: EGFR (Homo sapiens, UniProt P00533); experiment: Kinase panel screen; format: biochemical; conditions: Compound I and ATP 10 μM
[11] = biological target: T9, FGFR3 (Homo sapiens, UniProt P22607); experiment: Kinase panel screen; format: biochemical; conditions: Compound I and ATP 10 μM
T9 construct: purchased Upstate USA or Invitrogen (contract screening service)

[12] = system: CaMKII; experiment: Kinase panel screen; format: biochemical, rat; conditions: Compound I and ATP 10 μM
[13] = biological target: T10, Blk (Mus musculus, UniProt P16277); experiment: Kinase panel screen; format: biochemical; conditions: Compound I and ATP 10 μM
T10 construct: purchased Upstate USA or Invitrogen (commercial screening service)

[14] = biological target: T11, EphB2 (Homo sapiens, UniProt P29323); experiment: Kinase panel screen; format: biochemical; conditions: Compound I and ATP 10 μM
T11 construct: purchased Upstate USA or Invitrogen (commercial screening service)

[15] = biological target: T12, MSK1 (Homo sapiens, UniProt O75582); experiment: Kinase panel screen; format: biochemical; conditions: Compound I and ATP 10 μM
T12 construct: purchased Upstate USA or Invitrogen (contract screening service)

[16] = biological target: T13, CHK2 (Homo sapiens, UniProt O96017); experiment: Kinase panel screen; format: biochemical; conditions: Compound I and ATP 10 μM
T13 construct: purchased Upstate USA or Invitrogen (contract screening service)

[17] = biological target: T14, IKKβ (Homo sapiens, UniProt O14920); experiment: Kinase panel screen; format: biochemical; conditions: Compound I and ATP 10 μM
T14 construct: purchased Upstate USA or Invitrogen (commercial screening service)

[18] = biological target: T15, MAPK1 (Homo sapiens, UniProt P27361); experiment: Kinase panel screen; format: biochemical; conditions: Compound I and ATP 10 μM
T15 construct: purchased Upstate USA or Invitrogen (commercial screening service)

[19] = biological target: T16, Akt3 (Homo sapiens, UniProt Q9Y243); experiment: Kinase panel screen; format: biochemical; conditions: Compound I at 1 μM and ATP at the apparent Km
T16 construct: purchased Upstate USA or Invitrogen (commercial screening service)

[20] = biological target: T17, Fer (Homo sapiens, UniProt P16591); experiment: Kinase panel screen; format: biochemical; conditions: Compound I and ATP 10 μM
T17 construct: purchased Upstate USA or Invitrogen (contract screening service)

[21] = biological target: T18, MSK2 (Homo sapiens, UniProt O75676); experiment: Kinase panel screen; format: biochemical; conditions: Compound I and ATP 10 μM
T18 construct: purchased Upstate USA or Invitrogen (contract screening service)

[22] = biological target: T19, ALK (Homo sapiens, UniProt Q9UM73); experiment: Kinase panel screen; format: biochemical; conditions: Compound I and ATP 10 μM
T19 construct: purchased Upstate USA or Invitrogen (contract screening service)

[23] = biological target: T20, CaMKIV (Homo sapiens, UniProt Q16566); experiment: Kinase panel screen; format: biochemical; conditions: Compound I and ATP 10 μM
T20 construct: purchased Upstate USA or Invitrogen (commercial screening service)

[24] = biological target: T21, PKD2 (Homo sapiens, UniProt Q9BZL6); experiment: Kinase panel screen; format: biochemical; conditions: Compound I and ATP 10 μM
T21 construct: purchased Upstate USA or Invitrogen (contract screening service)

[25] = single 0.5 mg/kg i.v. bolus 30 min post-reperfusion, 24 h

T19 sequence (Q9UM73 19-1620): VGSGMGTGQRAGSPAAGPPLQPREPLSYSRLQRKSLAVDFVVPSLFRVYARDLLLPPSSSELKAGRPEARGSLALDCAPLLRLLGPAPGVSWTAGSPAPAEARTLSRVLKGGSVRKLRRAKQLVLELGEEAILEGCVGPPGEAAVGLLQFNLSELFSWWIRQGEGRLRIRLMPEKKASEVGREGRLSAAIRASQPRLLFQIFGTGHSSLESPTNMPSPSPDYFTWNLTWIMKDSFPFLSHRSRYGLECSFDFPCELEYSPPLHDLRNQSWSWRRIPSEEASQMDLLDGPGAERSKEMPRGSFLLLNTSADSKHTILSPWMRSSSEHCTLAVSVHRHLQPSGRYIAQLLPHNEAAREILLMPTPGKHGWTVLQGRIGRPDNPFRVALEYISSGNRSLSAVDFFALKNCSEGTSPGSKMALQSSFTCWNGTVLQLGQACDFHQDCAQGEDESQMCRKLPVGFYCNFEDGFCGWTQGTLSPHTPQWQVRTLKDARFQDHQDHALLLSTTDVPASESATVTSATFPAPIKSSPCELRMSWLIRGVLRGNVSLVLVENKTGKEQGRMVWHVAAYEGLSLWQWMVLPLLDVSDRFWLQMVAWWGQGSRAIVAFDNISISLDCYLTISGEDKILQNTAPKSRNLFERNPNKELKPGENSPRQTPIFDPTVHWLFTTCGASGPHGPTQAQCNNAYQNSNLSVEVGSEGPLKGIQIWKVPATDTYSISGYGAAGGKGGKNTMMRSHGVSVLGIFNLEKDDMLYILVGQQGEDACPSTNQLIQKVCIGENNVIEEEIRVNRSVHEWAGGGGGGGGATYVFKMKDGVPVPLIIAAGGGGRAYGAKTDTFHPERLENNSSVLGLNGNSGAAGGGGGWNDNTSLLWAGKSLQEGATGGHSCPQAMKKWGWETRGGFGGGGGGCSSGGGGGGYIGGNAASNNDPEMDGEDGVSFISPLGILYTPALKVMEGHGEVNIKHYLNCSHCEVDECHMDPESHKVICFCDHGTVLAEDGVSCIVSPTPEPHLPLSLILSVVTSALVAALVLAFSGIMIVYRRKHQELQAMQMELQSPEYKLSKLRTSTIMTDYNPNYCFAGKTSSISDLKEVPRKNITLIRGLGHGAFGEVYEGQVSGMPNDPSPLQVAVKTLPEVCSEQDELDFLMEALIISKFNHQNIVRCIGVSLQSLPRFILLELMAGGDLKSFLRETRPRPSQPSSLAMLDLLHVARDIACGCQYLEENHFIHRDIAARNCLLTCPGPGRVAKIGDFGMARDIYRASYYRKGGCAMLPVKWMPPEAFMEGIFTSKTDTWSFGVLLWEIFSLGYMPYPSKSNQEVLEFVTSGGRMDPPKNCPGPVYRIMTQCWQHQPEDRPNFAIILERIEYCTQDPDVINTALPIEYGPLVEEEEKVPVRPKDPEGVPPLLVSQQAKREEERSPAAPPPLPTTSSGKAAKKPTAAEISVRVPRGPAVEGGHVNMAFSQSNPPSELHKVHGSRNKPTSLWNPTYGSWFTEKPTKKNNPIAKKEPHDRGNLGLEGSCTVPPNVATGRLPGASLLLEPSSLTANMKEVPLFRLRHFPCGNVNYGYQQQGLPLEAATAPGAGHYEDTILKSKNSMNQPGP
T9 sequence (P22607 23-806): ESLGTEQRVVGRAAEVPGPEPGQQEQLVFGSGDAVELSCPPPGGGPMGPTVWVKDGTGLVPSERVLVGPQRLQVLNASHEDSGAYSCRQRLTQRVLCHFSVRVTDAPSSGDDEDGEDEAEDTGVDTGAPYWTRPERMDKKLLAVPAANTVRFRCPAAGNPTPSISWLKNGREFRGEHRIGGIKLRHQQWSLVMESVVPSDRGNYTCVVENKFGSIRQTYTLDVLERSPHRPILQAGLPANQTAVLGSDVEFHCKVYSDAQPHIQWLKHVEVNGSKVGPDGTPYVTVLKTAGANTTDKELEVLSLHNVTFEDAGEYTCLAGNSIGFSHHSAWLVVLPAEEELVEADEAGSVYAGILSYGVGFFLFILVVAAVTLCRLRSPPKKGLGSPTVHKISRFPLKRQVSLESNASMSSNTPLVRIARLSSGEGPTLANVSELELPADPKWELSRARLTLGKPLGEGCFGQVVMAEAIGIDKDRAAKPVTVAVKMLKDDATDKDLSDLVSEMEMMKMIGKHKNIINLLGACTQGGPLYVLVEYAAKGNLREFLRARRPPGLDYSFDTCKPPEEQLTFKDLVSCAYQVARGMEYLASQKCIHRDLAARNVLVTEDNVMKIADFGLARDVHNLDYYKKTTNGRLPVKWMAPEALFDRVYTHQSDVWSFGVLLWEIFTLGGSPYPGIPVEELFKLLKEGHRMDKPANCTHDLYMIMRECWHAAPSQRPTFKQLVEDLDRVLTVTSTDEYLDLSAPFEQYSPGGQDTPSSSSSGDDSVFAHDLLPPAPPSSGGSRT
T13 sequence (O96017 whole entry): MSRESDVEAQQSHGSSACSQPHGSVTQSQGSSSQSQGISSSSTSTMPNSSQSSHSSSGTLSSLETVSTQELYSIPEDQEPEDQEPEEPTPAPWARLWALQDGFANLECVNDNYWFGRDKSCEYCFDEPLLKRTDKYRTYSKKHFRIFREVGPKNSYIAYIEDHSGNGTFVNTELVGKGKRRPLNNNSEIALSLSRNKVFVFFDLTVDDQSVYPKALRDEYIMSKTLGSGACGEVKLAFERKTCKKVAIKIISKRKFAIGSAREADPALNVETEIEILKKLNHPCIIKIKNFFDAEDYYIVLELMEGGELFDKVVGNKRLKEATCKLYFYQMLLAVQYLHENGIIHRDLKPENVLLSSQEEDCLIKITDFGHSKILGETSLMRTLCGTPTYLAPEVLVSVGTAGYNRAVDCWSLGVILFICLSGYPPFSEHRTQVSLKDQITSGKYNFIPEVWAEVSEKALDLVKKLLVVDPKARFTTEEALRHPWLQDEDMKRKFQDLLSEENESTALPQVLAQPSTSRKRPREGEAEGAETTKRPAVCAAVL
T6 sequence (P42684 whole entry): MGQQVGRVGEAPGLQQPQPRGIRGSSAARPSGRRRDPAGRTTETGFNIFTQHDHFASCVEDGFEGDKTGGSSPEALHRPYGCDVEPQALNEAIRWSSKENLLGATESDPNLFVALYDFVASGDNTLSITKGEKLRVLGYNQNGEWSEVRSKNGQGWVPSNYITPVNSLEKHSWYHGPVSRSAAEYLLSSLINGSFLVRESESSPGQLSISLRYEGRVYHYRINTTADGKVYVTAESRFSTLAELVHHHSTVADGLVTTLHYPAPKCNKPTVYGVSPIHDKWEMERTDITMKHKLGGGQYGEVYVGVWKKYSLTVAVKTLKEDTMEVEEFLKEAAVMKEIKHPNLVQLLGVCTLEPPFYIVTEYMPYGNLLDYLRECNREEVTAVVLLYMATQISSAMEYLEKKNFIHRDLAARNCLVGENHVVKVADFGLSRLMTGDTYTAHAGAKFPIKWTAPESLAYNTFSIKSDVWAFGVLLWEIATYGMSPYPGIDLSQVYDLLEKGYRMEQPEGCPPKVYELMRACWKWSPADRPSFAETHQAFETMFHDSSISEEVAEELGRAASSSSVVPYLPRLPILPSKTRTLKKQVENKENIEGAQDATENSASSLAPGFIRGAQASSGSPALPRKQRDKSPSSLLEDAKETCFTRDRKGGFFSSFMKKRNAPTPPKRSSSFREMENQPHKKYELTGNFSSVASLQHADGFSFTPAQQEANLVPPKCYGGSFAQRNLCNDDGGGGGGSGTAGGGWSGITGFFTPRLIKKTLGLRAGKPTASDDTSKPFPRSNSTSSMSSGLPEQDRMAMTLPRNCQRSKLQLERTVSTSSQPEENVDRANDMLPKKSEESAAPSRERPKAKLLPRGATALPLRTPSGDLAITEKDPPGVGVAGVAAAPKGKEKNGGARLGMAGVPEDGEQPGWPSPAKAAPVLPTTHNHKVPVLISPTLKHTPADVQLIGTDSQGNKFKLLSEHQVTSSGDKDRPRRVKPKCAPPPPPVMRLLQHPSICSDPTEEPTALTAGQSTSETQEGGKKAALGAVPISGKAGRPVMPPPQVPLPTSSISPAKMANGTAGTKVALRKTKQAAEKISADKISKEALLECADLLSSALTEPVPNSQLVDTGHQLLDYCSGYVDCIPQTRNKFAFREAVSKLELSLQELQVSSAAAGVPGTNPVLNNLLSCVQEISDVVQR
T15 sequence (P27361 2-379 limits assumed): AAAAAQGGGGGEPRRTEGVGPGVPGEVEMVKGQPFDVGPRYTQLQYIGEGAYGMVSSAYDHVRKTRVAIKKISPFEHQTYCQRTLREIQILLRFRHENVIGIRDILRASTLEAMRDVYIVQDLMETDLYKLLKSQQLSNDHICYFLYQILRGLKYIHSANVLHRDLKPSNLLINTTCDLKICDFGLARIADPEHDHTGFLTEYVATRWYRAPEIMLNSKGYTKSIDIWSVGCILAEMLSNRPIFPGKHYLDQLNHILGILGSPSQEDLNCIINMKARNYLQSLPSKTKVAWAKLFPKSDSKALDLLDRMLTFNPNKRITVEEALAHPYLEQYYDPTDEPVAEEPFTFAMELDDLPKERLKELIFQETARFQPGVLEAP
T2 sequence (P31749 whole entry): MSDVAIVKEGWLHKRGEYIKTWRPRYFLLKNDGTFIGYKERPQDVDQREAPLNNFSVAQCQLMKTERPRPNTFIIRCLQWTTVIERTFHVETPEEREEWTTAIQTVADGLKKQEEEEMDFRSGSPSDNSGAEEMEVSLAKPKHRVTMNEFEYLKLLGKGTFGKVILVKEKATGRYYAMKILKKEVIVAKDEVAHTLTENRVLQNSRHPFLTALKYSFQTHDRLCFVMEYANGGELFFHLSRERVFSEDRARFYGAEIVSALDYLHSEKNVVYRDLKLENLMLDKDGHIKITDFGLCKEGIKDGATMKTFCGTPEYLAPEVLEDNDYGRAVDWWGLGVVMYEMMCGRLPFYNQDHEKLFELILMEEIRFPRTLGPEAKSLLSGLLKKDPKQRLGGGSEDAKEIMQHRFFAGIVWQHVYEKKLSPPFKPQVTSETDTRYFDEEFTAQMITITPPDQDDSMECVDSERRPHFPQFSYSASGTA

Q: What does the source list for `Nc1nc(N)c2nc(-c3cccc(O)c3)c(-c3cccc(O)c3)nc2n1` [Compound I, 6,7-bis-(3-hydroxyphenyl)-pteridine-2,4-diamine]?
A: Percent Control, Pyk2 [1]: 68%; remaining activity at 10 µM [2]: 62%; Percent Control, Lyn (m) [3]: 41%; Percent Control, ASK1 [4]: 105%; reduction of infarct size vs. controls ([5]; single 0.3 mg/kg IV bolus 30 min post-reperfusion, N=12-13): 32%; infarct size ([5]; single 0.3 mg/kg IV bolus 30 min post-reperfusion, controls 56%): 40%; increase in viable tissue within the ischemic zone [5, 25]: 37%; reduction of free wall infarct size vs. vehicle-treated controls [5, 25]: 38%; reduction of infarct size (infarct area as percent of total LV ischemic area) [5, 25]: 35%; Percent Control, GSK3a [6]: 62%; Percent Control, Arg [7]: 43%; Percent Control, Met [8]: 41%; Percent Control, SGK [9]: 95%; Percent Control, EGFR [10]: 99%; Percent Control, FGFR3 [11]: 66%; Percent Control, CaMKII (r) [12]: 90%; Percent Control, Blk (m) [13]: 57%; Percent Control, EphB2 [14]: 56%; Percent Control, MSK1 [15]: 92%; Percent Control, CHK2 [16]: 75%; Percent Control, IKKβ [17]: 68%; Percent Control, MAPK1 [18]: 97%; Percent Control, Akt3* [19]: 98%; Percent Control, Fer [20]: 80%; Percent Control, MSK2 [21]: 100%; Percent Control, ALK [22]: 48%; Percent Control, CaMKIV [23]: 87%; Percent Control, PKD2 [24]: 37%

Source: patent US7691858B2, “Kinase inhibitors and methods of use thereof” (TargeGen, Inc., priority 2006, dated 2010)
